# Data: patent publication US20230085307A1, “PYRIDAZINONE COMPOUND AND HERBICIDE” (NISSAN CHEMICAL CORPORATION, priority 2019, published 2023)
# What was measured:
# barnyard grass [1] = assay: Test Example 3: herbicidal effect by foliage application, Wagner pot (Table 18, symbol H); type: in vivo, barnyard grass (Echinochloa crus-galli); conditions: 320 g/ha
# Method in brief: (§1)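 Plants were sown in alluvial soil held under 0.1–0.5 cm standing water and grown 14 days in a greenhouse at 25–30 °C. An emulsifiable formulation, water-diluted to the set dose, was then sprayed onto the foliage, and effects were scored three weeks later using previously defined criteria.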
# Chinese sprangletop = assay: Test Example 3: herbicidal effect by foliage application, Wagner pot (Table 18, symbol D); type: in vivo, chinese sprangletop (Leptochloa chinensis); conditions: 320 g/ha
# Method in brief: as §1
# rice flat sedge = assay: Test Example 3: herbicidal effect by foliage application, Wagner pot (Table 18, symbol E); type: in vivo, rice flat sedge (Cyperus iria); conditions: 320 g/ha
# Method in brief: as §1
# southern crabgrass [2] = assay: Test Example 4: herbicidal effect by soil treatment (Table 19, symbol F); type: in vivo, southern crabgrass (Digitaria ciliaris); conditions: amount of applied herbicide 320 g/ha
# Method in brief: (§2)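 In this soil treatment, the formulated compound reached the seeds only through the soil: seeds were buried about 1.5 cm deep in sterilized diluvial soil, then the diluted emulsion was sprayed over the surface. After three weeks at 25° C. to 30° C. in a greenhouse, effects were graded on criteria from an earlier test.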
# green foxtail [3] = assay: Test Example 4: herbicidal effect by soil treatment (Table 19, symbol G); type: in vivo, green foxtail (Setaria viridis); conditions: amount of applied herbicide 320 g/ha
# Method in brief: as §2
# barnyard grass [4] = assay: Test Example 4: herbicidal effect by soil treatment (Table 19, symbol H); type: in vivo, barnyard grass (Echinochloa crus-galli); conditions: amount of applied herbicide 320 g/ha
# Method in brief: as §2
# wild oat [5] = assay: Test Example 4: herbicidal effect by soil treatment (Table 19, symbol I); type: in vivo, wild oat (Avena fatua); conditions: amount of applied herbicide 320 g/ha
# Method in brief: as §2
# blackgrass [6] = assay: Test Example 4: herbicidal effect by soil treatment (Table 19, symbol J); type: in vivo, blackgrass (Alopecurus myosuroides); conditions: amount of applied herbicide 320 g/ha
# Method in brief: as §2
# Italian ryegrass [7] = assay: Test Example 4: herbicidal effect by soil treatment (Table 19, symbol K); type: in vivo, Italian ryegrass (Lolium multiflorum); conditions: amount of applied herbicide 320 g/ha
# Method in brief: as §2
# windgrass [8] = assay: Test Example 4: herbicidal effect by soil treatment (Table 19, symbol L); type: in vivo, windgrass (Apera spica-venti); conditions: amount of applied herbicide 320 g/ha
# Method in brief: as §2
# velvetleaf [9] = assay: Test Example 4: herbicidal effect by soil treatment (Table 19, symbol M); type: in vivo, velvetleaf (Abutilon theophrasti); conditions: amount of applied herbicide 320 g/ha
# Method in brief: as §2
# redroot pigweed [10] = assay: Test Example 4: herbicidal effect by soil treatment (Table 19, symbol N); type: in vivo, redroot pigweed (Amaranthus retroflexus); conditions: amount of applied herbicide 320 g/ha
# Method in brief: as §2
# lambsquarters [11] = assay: Test Example 4: herbicidal effect by soil treatment (Table 19, symbol O); type: in vivo, lambsquarters (Chenopodium album); conditions: amount of applied herbicide 320 g/ha
# Method in brief: as §2
# chickweed [12] = assay: Test Example 4: herbicidal effect by soil treatment (Table 19, symbol P); type: in vivo, common chickweed (Stellaria media); conditions: amount of applied herbicide 320 g/ha
# Method in brief: as §2
# persian speedwell [13] = assay: Test Example 4: herbicidal effect by soil treatment (Table 19, symbol R); type: in vivo, Persian speedwell (Veronica persica); conditions: amount of applied herbicide 320 g/ha
# Method in brief: as §2
# southern crabgrass [14] = assay: Test Example 5: herbicidal effect by foliage application, plastic box (Table 20, symbol F); type: in vivo, southern crabgrass (Digitaria ciliaris); conditions: 320 g/ha, foliage application after 14-day growth, evaluated three weeks after application
# Method in brief: (§3)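 Plants were sown into sterilized diluvial soil under about 1.5 cm cover and kept in a greenhouse at 25° C. to 30° C. Fourteen days on, foliage received an even spray of the diluted emulsion. Herbicidal or crop effect was judged three weeks afterwards.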
# green foxtail [15] = assay: Test Example 5: herbicidal effect by foliage application, plastic box (Table 20, symbol G); type: in vivo, green foxtail (Setaria viridis); conditions: 320 g/ha, foliage application after 14-day growth, evaluated three weeks after application
# Method in brief: as §3
# barnyard grass [16] = assay: Test Example 5: herbicidal effect by foliage application, plastic box (Table 20, symbol H); type: in vivo, barnyard grass (Echinochloa crus-galli); conditions: 320 g/ha, foliage application after 14-day growth, evaluated three weeks after application
# Method in brief: as §3
# wild oat [17] = assay: Test Example 5: herbicidal effect by foliage application, plastic box (Table 20, symbol I); type: in vivo, wild oat (Avena fatua); conditions: 320 g/ha, foliage application after 14-day growth, evaluated three weeks after application
# Method in brief: as §3
# blackgrass [18] = assay: Test Example 5: herbicidal effect by foliage application, plastic box (Table 20, symbol J); type: in vivo, blackgrass (Alopecurus myosuroides); conditions: 320 g/ha, foliage application after 14-day growth, evaluated three weeks after application
# Method in brief: as §3
# Italian ryegrass [19] = assay: Test Example 5: herbicidal effect by foliage application, plastic box (Table 20, symbol K); type: in vivo, Italian ryegrass (Lolium multiflorum); conditions: 320 g/ha, foliage application after 14-day growth, evaluated three weeks after application
# Method in brief: as §3
# windgrass [20] = assay: Test Example 5: herbicidal effect by foliage application, plastic box (Table 20, symbol L); type: in vivo, windgrass (Apera spica-venti); conditions: 320 g/ha, foliage application after 14-day growth, evaluated three weeks after application
# Method in brief: as §3
# velvetleaf [21] = assay: Test Example 5: herbicidal effect by foliage application, plastic box (Table 20, symbol M); type: in vivo, velvetleaf (Abutilon theophrasti); conditions: 320 g/ha, foliage application after 14-day growth, evaluated three weeks after application
# Method in brief: as §3
# redroot pigweed [22] = assay: Test Example 5: herbicidal effect by foliage application, plastic box (Table 20, symbol N); type: in vivo, redroot pigweed (Amaranthus retroflexus); conditions: 320 g/ha, foliage application after 14-day growth, evaluated three weeks after application
# Method in brief: as §3
# lambsquarters [23] = assay: Test Example 5: herbicidal effect by foliage application, plastic box (Table 20, symbol O); type: in vivo, lambsquarters (Chenopodium album); conditions: 320 g/ha, foliage application after 14-day growth, evaluated three weeks after application
# Method in brief: as §3
# chickweed [24] = assay: Test Example 5: herbicidal effect by foliage application, plastic box (Table 20, symbol P); type: in vivo, common chickweed (Stellaria media); conditions: 320 g/ha, foliage application after 14-day growth, evaluated three weeks after application
# Method in brief: as §3
# persian speedwell [25] = assay: Test Example 5: herbicidal effect by foliage application, plastic box (Table 20, symbol R); type: in vivo, Persian speedwell (Veronica persica); conditions: 320 g/ha, foliage application after 14-day growth, evaluated three weeks after application
# Method in brief: as §3
SMILES,herbicidal effect on barnyard grass (H) (barnyard grass [1]),herbicidal effect on Chinese sprangletop (D) (Chinese sprangletop),herbicidal effect on rice flat sedge (E) (rice flat sedge),"Herbicidal effect by soil treatment, F: southern crabgrass (southern crabgrass [2])","Herbicidal effect by soil treatment, G: green foxtail (green foxtail [3])","Herbicidal effect by soil treatment, H: barnyard grass (barnyard grass [4])","Herbicidal effect by soil treatment, I: wild oat (wild oat [5])","Herbicidal effect by soil treatment, J: blackgrass (blackgrass [6])","Herbicidal effect by soil treatment, K: Italian ryegrass (Italian ryegrass [7])","Herbicidal effect by soil treatment, L: windgrass (windgrass [8])","Herbicidal effect by soil treatment, M: velvetleaf (velvetleaf [9])","Herbicidal effect by soil treatment, N: redroot pigweed (redroot pigweed [10])","Herbicidal effect by soil treatment, O: lambsquarters (lambsquarters [11])","Herbicidal effect by soil treatment, P: chickweed (chickweed [12])","Herbicidal effect by soil treatment, R: persian speedwell (persian speedwell [13])",herbicidal effect on F: southern crabgrass (evaluation grade 0-5) (southern crabgrass [14]),herbicidal effect on G: green foxtail (evaluation grade 0-5) (green foxtail [15]),herbicidal effect on H: barnyard grass (evaluation grade 0-5) (barnyard grass [16]),herbicidal effect on I: wild oat (evaluation grade 0-5) (wild oat [17]),herbicidal effect on J: blackgrass (evaluation grade 0-5) (blackgrass [18]),other results
Cc1nn(C)c(=O)c(-c2c(-c3ccc(OC(F)(F)F)cc3)sc3cc(Cl)ccc23)c1O [3-149],4 (Herbicidal rate of 70% or more and less than 90%),5 (Herbicidal rate of 90% or more (almost completely withered)),4 (Herbicidal rate of 70% or more and less than 90%),0 (Herbicidal rate of 5% or less (almost no effect)),0 (Herbicidal rate of 5% or less (almost no effect)),0 (Herbicidal rate of 5% or less (almost no effect)),0 (Herbicidal rate of 5% or less (almost no effect)),0 (Herbicidal rate of 5% or less (almost no effect)),0 (Herbicidal rate of 5% or less (almost no effect)),0 (Herbicidal rate of 5% or less (almost no effect)),1 (Herbicidal rate of 5% or more and less than 20%),3 (Herbicidal rate of 40% or more and less than 70%),0 (Herbicidal rate of 5% or less (almost no effect)),0 (Herbicidal rate of 5% or less (almost no effect)),0 (Herbicidal rate of 5% or less (almost no effect)),3 (Herbicidal rate of 40% or more and less than 70%),4 (Herbicidal rate of 70% or more and less than 90%),3 (Herbicidal rate of 40% or more and less than 70%),0 (Herbicidal rate of 5% or less (almost no effect)),5 (Herbicidal rate of 90% or more (almost completely withered)),herbicidal effect on K: Italian ryegrass (evaluation grade 0-5) (Italian ryegrass [19]): 3 (Herbicidal rate of 40% or more and less than 70%); herbicidal effect on L: windgrass (evaluation grade 0-5) (windgrass [20]): 5 (Herbicidal rate of 90% or more (almost completely withered)); herbicidal effect on M: velvetleaf (evaluation grade 0-5) (velvetleaf [21]): 4 (Herbicidal rate of 70% or more and less than 90%); herbicidal effect on N: redroot pigweed (evaluation grade 0-5) (redroot pigweed [22]): 3 (Herbicidal rate of 40% or more and less than 70%); herbicidal effect on O: lambsquarters (evaluation grade 0-5) (lambsquarters [23]): 4 (Herbicidal rate of 70% or more and less than 90%); herbicidal effect on P: chickweed (evaluation grade 0-5) (chickweed [24]): 0 (Herbicidal rate of 5% or less (almost no effect)); herbicidal effect on R: persian speedwell (evaluation grade 0-5) (persian speedwell [25]): 4 (Herbicidal rate of 70% or more and less than 90%)
Cc1ccc2c(-c3c(O)c(C)nn(C)c3=O)c(-c3ccc(OC(F)F)cc3)sc2c1 [3-151],3 (Herbicidal rate of 40% or more and less than 70%),0 (Herbicidal rate of 5% or less (almost no effect)),3 (Herbicidal rate of 40% or more and less than 70%),0 (Herbicidal rate of 5% or less (almost no effect)),0 (Herbicidal rate of 5% or less (almost no effect)),0 (Herbicidal rate of 5% or less (almost no effect)),0 (Herbicidal rate of 5% or less (almost no effect)),0 (Herbicidal rate of 5% or less (almost no effect)),0 (Herbicidal rate of 5% or less (almost no effect)),0 (Herbicidal rate of 5% or less (almost no effect)),0 (Herbicidal rate of 5% or less (almost no effect)),0 (Herbicidal rate of 5% or less (almost no effect)),0 (Herbicidal rate of 5% or less (almost no effect)),1 (Herbicidal rate of 5% or more and less than 20%),5 (Herbicidal rate of 90% or more (almost completely withered)),0 (Herbicidal rate of 5% or less (almost no effect)),0 (Herbicidal rate of 5% or less (almost no effect)),0 (Herbicidal rate of 5% or less (almost no effect)),0 (Herbicidal rate of 5% or less (almost no effect)),0 (Herbicidal rate of 5% or less (almost no effect)),herbicidal effect on K: Italian ryegrass (evaluation grade 0-5) (Italian ryegrass [19]): 2 (Herbicidal rate of 20% or more and less than 40%); herbicidal effect on L: windgrass (evaluation grade 0-5) (windgrass [20]): 0 (Herbicidal rate of 5% or less (almost no effect)); herbicidal effect on M: velvetleaf (evaluation grade 0-5) (velvetleaf [21]): 3 (Herbicidal rate of 40% or more and less than 70%); herbicidal effect on N: redroot pigweed (evaluation grade 0-5) (redroot pigweed [22]): 2 (Herbicidal rate of 20% or more and less than 40%); herbicidal effect on O: lambsquarters (evaluation grade 0-5) (lambsquarters [23]): 3 (Herbicidal rate of 40% or more and less than 70%); herbicidal effect on P: chickweed (evaluation grade 0-5) (chickweed [24]): 5 (Herbicidal rate of 90% or more (almost completely withered)); herbicidal effect on R: persian speedwell (evaluation grade 0-5) (persian speedwell [25]): 5 (Herbicidal rate of 90% or more (almost completely withered))
